Where a name gives a salt, the structure may show the parent alone. Blank lines part the entries; values can stand above or below the molecule they belong to.
What was measured:
[1] = test system: panel of sensorially trained experts; experiment: Sensorial assessment of toothpastes containing the flavourings (Examples S-1 to S-4); format: in vivo, human; settings: flavouring 1.2 wt. % in toothpaste base, usage conditions
Protocol: The flavourings obtained in this way were worked into a standard silica toothpaste base in a concentration of 1.2 wt. %. The toothpastes were tested by a panel of sensorially trained experts under usage conditions. The sensorial assessments were as follows: very pleasant, rich and voluminous minty freshness with a comparatively fast onset, strong and marked and comparatively very long-lasting cooling fresh impression, wherein it was noticeable that the sensation of coldness was rapidly perceptible in the whole of the oral cavity. Additionally the flavour was assessed as being softer and more neutral and less sharp than without the compounds according to the invention.
The flavourings in a concentration of 1.2% were worked into a toothpaste base comprising an amount of 65% of sodium bicarbonate. The toothpastes were tested under usage conditions and assessed by a panel of sensorially trained experts. In each case a pleasant, powerful spearmint flavour in combination with a voluminous and long-lasting fresh taste was noted.
The flavourings obtained in this way were in each case worked into a standard silica toothpaste base in a concentration of 1.2 wt. %. The toothpastes were tested by a panel of sensorially trained experts under usage conditions. […]

[2] = cited from earlier work; for cooling action: J. Soc. Cosmet. Chem. 1978, 29, 185-200, study of approximately 1200 compounds
human TRPM8 receptor = human TRPM8 receptor (Homo sapiens (Human), UniProt Q7Z2W7); experiment: Assay on TRPM8 modulators (Ca2+-sensitive dye, HEK293-TRPM8 test cells, EC50 determination); format: cell-based; settings: assay according to reference example 3
human TRPM8 receptor, sequence (Q7Z2W7 whole entry): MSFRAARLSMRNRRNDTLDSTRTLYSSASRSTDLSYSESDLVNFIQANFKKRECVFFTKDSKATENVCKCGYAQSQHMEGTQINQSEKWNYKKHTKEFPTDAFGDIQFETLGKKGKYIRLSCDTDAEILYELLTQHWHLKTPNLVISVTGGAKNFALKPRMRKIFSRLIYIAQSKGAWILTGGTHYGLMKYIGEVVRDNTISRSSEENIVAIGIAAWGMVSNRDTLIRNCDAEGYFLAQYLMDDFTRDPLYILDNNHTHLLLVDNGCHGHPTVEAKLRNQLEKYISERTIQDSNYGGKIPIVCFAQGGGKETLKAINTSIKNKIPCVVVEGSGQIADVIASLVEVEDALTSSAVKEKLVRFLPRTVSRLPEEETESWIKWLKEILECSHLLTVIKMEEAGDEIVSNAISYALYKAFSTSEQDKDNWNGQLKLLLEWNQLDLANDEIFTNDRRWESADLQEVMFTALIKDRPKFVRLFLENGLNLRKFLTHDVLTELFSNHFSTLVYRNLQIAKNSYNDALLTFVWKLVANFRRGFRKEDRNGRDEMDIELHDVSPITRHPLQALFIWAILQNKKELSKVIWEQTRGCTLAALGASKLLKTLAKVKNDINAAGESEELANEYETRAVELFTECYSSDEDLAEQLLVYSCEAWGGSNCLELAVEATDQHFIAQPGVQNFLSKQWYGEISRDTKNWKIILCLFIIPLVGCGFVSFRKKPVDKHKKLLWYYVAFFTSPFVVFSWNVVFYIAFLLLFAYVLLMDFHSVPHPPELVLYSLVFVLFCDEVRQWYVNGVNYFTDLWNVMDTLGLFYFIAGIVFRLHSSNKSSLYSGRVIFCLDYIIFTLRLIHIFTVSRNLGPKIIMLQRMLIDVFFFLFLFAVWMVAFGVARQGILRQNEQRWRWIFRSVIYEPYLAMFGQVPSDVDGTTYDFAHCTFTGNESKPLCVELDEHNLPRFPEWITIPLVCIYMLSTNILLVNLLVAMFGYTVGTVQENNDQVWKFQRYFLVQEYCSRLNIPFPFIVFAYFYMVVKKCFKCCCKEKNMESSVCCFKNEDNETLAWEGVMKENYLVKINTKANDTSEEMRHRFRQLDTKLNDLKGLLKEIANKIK
Excerpt: As a test cell system the human TRPM8 DNA (see plasmid pInd-M8 above) was used to prepare a stable transfixed HEK293 cell line. Here preference is for HEK293 which via the plasmid introduced offers the possibility of induction of the TRPM8 expression by means of tetracycline.
The agonisation or antagonisation of the receptor can be quantified by means of a Ca^2+-sensitive dye (e.g. FURA, Fluo-4, etc.).
To begin with, in a manner known per se, in cell culture flasks a fresh culture of transformed HEK cells is prepared. The HEK293-TRPM8 test cells are removed using trypsin from the cell culture flasks and 40 000 cells/well are sown with 100 μl medium in 96-well plates (Greiner #655948 Poly-D-lysine coated). In order to induce the TRPM8 receptor the growth medium tetracycline is mixed in (DMEM/HG, 10% FCS tetracycline-free, 4 mM L-glutamine, 15 μg/ml blasticidin, 100 μg/ml hygromycin B, 1 μg/ml tetracycline). The next day the cells are charged with Fluo-4Am dye and the test is performed.
The test substances are used in triplicate in concentrations of between 0.1 and 200 μm in the assay. Normally the compounds are kept ready in DMSO solutions and diluted for the assay to a maximum DMSO concentration of 2%.

SMILES: CCNC(=O)C1CC(C)CCC1C(C)C (centres unmarked) [WS-3, menthane-3-carboxylic acid-N-ethylamide]
sensorial assessment of cooling fresh impression [1]: less powerful, less voluminous and less long-lasting
cooling action [2]: most strongly cooling active ingredients

SMILES: COc1cnc(-c2ccccn2)nc1NC(C)C [Compound 2-16, Isopropyl-(5-methoxy-2-pyridin-2-yl-pyrimidin-4-yl)-ammonium fumarate]
EC50 (human TRPM8 receptor; Table B, structure type 2): 1600 nM

SMILES: CC[C@@H](C)Nc1nc(-c2ccccn2)ncc1OC (stereo in doubt) [Compound 2-5, Sec-butyl-(5-methoxy-2-pyridin-2-yl-pyrimidin-4-yl)-amine]
EC50 (human TRPM8 receptor; Table B, structure type 2): 100 nM

SMILES: CC1CCC(C(C)C)C(C(=O)NCC(=O)O)C1 [N^α-(L-menthanecarbonyl)glycine]
cooling action [2]: very weak cooling action

SMILES: COc1cnc(-c2ccccn2)nc1NC(C)C [Compound 2-1, Isopropyl-(5-methoxy-2-pyridin-2-yl-pyrimidin-4-yl)-amine]
EC50 (human TRPM8 receptor; Table B, structure type 2): 100 nM

SMILES: COc1cnc(-c2ccccn2)nc1NC(C)C [Compound 2-18, Isopropyl-(5-methoxy-2-pyridin-2-yl-pyrimidin-4-yl)-ammonium tartrate]
EC50 (human TRPM8 receptor; Table B, structure type 2): 500 nM

SMILES: COc1cnc(-c2ccccn2)nc1NC(C)C [Compound 2-19, Isopropyl-(5-methoxy-2-pyridin-2-yl-pyrimidin-4-yl)-ammonium succinate]
EC50 (human TRPM8 receptor; Table B, structure type 2): 300 nM

SMILES: COc1cnc(-c2ccccn2)nc1NC(C)C [Compound 2-22]
EC50 (human TRPM8 receptor; Table B, structure type 2): 700 nM

SMILES: COc1cnc(-c2ccccn2)nc1NCC1CC1 [Compound 2-11]
EC50 (human TRPM8 receptor; Table B, structure type 2): 1200 nM

SMILES: CCOC(=O)CNC(=O)C1CC(C)CCC1C(C)C (centres unmarked) [WS5, N-[[5-methyl-2-(1-methylethyl)cyclohexyl]carbonyl]glycine ethyl ester]
cooling action [2]: most strongly cooling active ingredients
irritancy ([2]; US 2005/0222256): strongly irritant

SMILES: O=C1CCCC2=C1C1(CC3c4ccccc4CCN23)SCCCS1 (centres unmarked) [Compound 1-4, 2,3,4,5,6,10b,11,12-octahydro-spiro[4b-azachrysene-12,2′-[1,3]dithian]-1-one]
EC50 (human TRPM8 receptor; Table A, structure type 1): 3100 nM

SMILES: C[C@H]1OC(=O)C2=C1N1CCc3ccccc3C1CC2=O (some centres unmarked) [Compound 1-9]
EC50 (human TRPM8 receptor; Table A, structure type 1): 10000 nM

Continued, values first:

EC50 (human TRPM8 receptor; Table C, structure type 3): 8200 nM
SMILES: CC(C)CN(C(=O)/C=C/c1ccc2c(c1)OCO2)c1ccc(Cl)cc1 [Compound 3-16]

EC50 (human TRPM8 receptor; Table C, structure type 3): 6800 nM
SMILES: O=C(CCc1ccc2c(c1)OCO2)N(c1ccccc1)c1ccccc1 [Compound 3-43]

EC50 (human TRPM8 receptor; Table C, structure type 3): 2200 nM
SMILES: COc1ccc(/C=C/C(=O)N(Cc2ccccc2)c2ccccn2)cc1 [Compound 3-24]

EC50 (human TRPM8 receptor; Table C, structure type 3): 2400 nM
SMILES: O=C(/C=C/c1ccccc1)N(Cc1ccccc1)c1ccccc1 [Compound 3-28]

EC50 (human TRPM8 receptor; Table C, structure type 3): 2600 nM
SMILES: COc1cccc(/C=C/C(=O)N(c2ccccc2)C2CCCCC2)c1OC [Compound 3-39]

EC50 (human TRPM8 receptor; Table C, structure type 3): 1100 nM
SMILES: COc1ccc(/C=C/C(=O)N(c2ccccc2)c2ccccc2)cc1 [Compound 3-20, 4-methoxycinammic acid-N,N-diphenylamide]

EC50 (human TRPM8 receptor; Table C, structure type 3): 1000 nM
SMILES: O=C(COc1ccc2c(c1)OCO2)N(c1ccccc1)C1CCCCC1 [Compound 3-44]

EC50 (human TRPM8 receptor; Table C, structure type 3): 700 nM
SMILES: O=C(/C=C/c1ccccc1Cl)N(c1ccccn1)C1CCCCC1 [Compound 3-41]

EC50 (human TRPM8 receptor; Table C, structure type 3): 700 nM
SMILES: COc1cccc(/C=C/C(=O)N(c2ccccn2)C2CCCCC2)c1OC [Compound 3-38]

EC50 (human TRPM8 receptor; Table C, structure type 3): 12300 nM
SMILES: CCN(CC)C(=O)/C=C/c1ccc2c(c1)OCO2 [Compound 3-15]

EC50 (human TRPM8 receptor; Table C, structure type 3): 700 nM
SMILES: O=C(/C=C/c1ccc2c(c1)OCO2)N(Cc1ccccc1)c1ccccn1 [Compound 3-12]

EC50 (human TRPM8 receptor; Table C, structure type 3): 700 nM
SMILES: COc1ccc(/C=C/C(=O)N(c2ccccc2)C2CCCCC2)cc1 [Compound 3-19]

Source: patent publication US10584134B2, “Use of physiological cooling active ingredients, and agents containing such active ingredients” (SYMRISE AG, priority 2009, dated 2020)
